# Reference: patent US20220033448A1, “METHODS FOR AGGREGATION OF PROTEINS” (priority 2011, published 2022)
# Like-named read-outs stand apart in the source and are kept apart here. No end group written: not given here. *: point of attachment. Biotin = O=C1N[C@H]2[C@H](CS[C@H]2CCCCC(=O)*)N1; Ttds = NCCCOCCOCCOCCCNC(=O)CCC(=O)*
# Experiments:
# PR8 virus = type: cell-based, influenza A virus (H1N1 strain)
# S. aureus [1] = type: cell-based, Staphylococcus aureus; settings: S. aureus clinical strain MRSA 204; passaged at half the MIC over 15 days
# S. aureus MRSA 326 = assay: Neutropenic-mouse thigh model; settings: neutropenic mice; bolus i.v. dose of 15 mg/kg 2 h after inoculation; sacrificed 4 hours post-infection
# β-Gal [2] = target: T1, β-Gal (Escherichia coli, UniProt P00722); settings: 1 μM peptide; immobilized β-Gal
# T1 sequence (P00722 2-1024 with the stated changes limits assumed): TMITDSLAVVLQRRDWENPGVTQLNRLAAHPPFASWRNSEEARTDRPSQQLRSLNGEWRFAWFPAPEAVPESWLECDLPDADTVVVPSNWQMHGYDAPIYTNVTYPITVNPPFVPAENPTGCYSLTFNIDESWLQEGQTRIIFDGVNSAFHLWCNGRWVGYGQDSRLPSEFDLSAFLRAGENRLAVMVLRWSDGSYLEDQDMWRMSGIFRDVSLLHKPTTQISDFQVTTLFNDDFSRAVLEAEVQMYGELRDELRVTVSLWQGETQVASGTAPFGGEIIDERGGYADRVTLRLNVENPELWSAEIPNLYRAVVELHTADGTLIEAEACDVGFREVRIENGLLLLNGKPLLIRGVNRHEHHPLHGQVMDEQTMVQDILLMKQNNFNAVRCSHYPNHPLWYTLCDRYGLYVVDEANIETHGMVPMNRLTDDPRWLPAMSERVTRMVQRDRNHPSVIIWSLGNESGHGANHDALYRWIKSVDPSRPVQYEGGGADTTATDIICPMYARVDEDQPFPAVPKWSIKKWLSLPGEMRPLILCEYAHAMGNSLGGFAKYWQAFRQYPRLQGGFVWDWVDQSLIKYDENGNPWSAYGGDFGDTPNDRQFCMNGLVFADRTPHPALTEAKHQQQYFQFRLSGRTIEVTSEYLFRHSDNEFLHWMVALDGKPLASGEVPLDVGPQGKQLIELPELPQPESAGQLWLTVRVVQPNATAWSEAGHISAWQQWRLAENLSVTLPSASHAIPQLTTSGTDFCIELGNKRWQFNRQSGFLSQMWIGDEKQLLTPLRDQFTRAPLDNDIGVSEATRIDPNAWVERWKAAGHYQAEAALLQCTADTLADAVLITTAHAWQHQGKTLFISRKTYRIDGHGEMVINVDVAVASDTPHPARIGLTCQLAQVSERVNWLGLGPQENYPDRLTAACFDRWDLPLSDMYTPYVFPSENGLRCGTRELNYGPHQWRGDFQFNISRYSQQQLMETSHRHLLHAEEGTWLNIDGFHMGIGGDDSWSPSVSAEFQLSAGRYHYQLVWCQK
# Experimental: In this in vitro experiment the affinity of different interferor peptides was measured for binding to β-gal by means of surface plasmon resonance (SPR). SPR experiments were performed at 25° C. using a Biacore T100 equipped with CM5 sensor chip (GE Healthcare.). Coupling reagents (N-ethyl-N′-(3-dimethylaminopropyl)carbodiimide (EDC), N-hydroxysuccinimide (NHS) and ethanolamine-HCI) were purchased from GE Healthcare. BSA and β-gal were purchased from Sigma-Aldrich and Roche Diagnostics, respectively. […] The proteins BSA and β-Gal were immobilized respectively, in the reference and sample channels on a CM5 sensor chip by standard amine coupling chemistry at a flow of 10 μl min^−1. The carboxymethyl dextran surface was activated by the injection of a 1:1 ratio of EDC and NHS for 7 minutes. The proteins were diluted in 10 mM sodium-acetate buffer, pH 4.5 to a final concentration of 0.2 mg m1^−1 and injected in short pulses over the activated surface until the immobilization levels reached 4000 RU or 8000 RU, for BSA and β-Gal, respectively. The remaining reactive groups were blocked with 1 M ethanolamine, pH 8. After completion of coupling, the surface was regenerated with short pulses of 50 mM NaOH and 8 M urea to remove non-covalently attached proteins. […] The peptides, dissolved in the running buffer (10 mM sodium phosphate, pH 6.8, 150 mM NaCI, 3 mM EDTA and 0.015% Tween 20) at a concentration of 1 μM, were injected for 60 s at a flow rate of 30 μl min^−1 and then allowed to dissociate for 600 s. The injection was repeated on the same surface as well as on independently immobilized surfaces. The surface was regenerated between each cycle by 30 s pulses of i) 50 mM NaOH, and ii) 8 M urea, and was allowed to stabilize for 400 s before the next cycle.
# The peptide dissolved in the running buffer was injected for 60 s at a flow-rate of 301.11min′ over the reference (BSA) and sample (β-Gal) surfaces in a range of concentrations (0-4 μM, with one internal replicate) and were then allowed to dissociate for 600 s. The concentration series were repeated on the same surface (three times) as well as on independently immobilized surfaces. The surface was regenerated between each cycle by 30 s pulses of i) 50 mM NaOH, and ii) 8 M urea, and was allowed to stabilize for 400 s before the next cycle.
# The data were globally fitted to a three-state model, using the Biacore T100 software, assuming an initial encounter between the peptide in solution and the protein on the chip followed by a two-step rearrangement before an identical binding site becomes available at the growing β-sheet.
# β-Gal [3] = target: T1, β-Gal; settings: 10 μM peptide and 10 μM β-Gal; 20 mM sodium phosphate buffer, pH 6.8
# Experimental: The co-aggregation of Tango 1 peptide, Tango 2 peptide and a tandem repeat of Tango 2 peptide with 13-Gal in vitro were monitored via light scattering from the apparent change in the optical density (OD) at 340 nm due to growth of aggregate particulates at room temperature. The interferor-β-Gal co-aggregation was initiated by adding equimolar molar concentration (10 μM) of either Tango 1 peptide, either Tango 2 peptide, either tandem repeat of Tango 2 peptide and β-Gal in 20 mM sodium phosphate buffer, pH 6.8 followed by gently stirring the sample at 50 rpm.
# To characterise the size of the aggregates the hydrodynamic radius (RH) of β-Gal at time zero and after co-incubation with the either Tango 1 peptide, either Tango 2 peptide, either tandem repeat of Tango 2 peptide (Table 14) for 2 h was measured using dynamic light scattering (DLS), DynaPro DLS (Wyatt Technology Europe, Germany).
# EGFR family = assay: EGF-induced ERK1/2 phosphorylation in HeLa cells (cross reactivity of VEGFR2 peptides); type: cell-based, human; settings: EGF 25 ng/ml
# Experimental: As a next step, to test the specificity of the VEGFR2 peptides, we tested their cross reactivity towards the EGFR family. Therefore, HeLa cells were treated with peptide B8 and B12 and subsequently stimulated with EGF (25ng/ml).
# [4] = system: Human embryonic kidney (HEK293T) cells; settings: 50 μg/ml (C30: 50 μg/ml or beyond)
# S. aureus [5] = system: S. aureus
# Experimental: (§1) Bacteria were grown in a shaking incubator at 37° C. and 160rpm in 50 ml BHI , using individual colonies retrieved from a fresh overnight TSA-sheep blood plate. The cultures were grown to a density of approximately 1×10^8cells/ml and then diluted to 5×10^5 cells/ml in CAMHB (Mc Farland 0.5). Each well contained 100p.I (50p.I of peptide containing MHB plus 50 μl inoculum). The final cell density was 1×10^5 to 5×10^5/ml. After addition of the cell suspension, plates were incubated at 37° C. for 18 to 24 hours. The optical density at 590 nm (OD590) of each well was measured after 5 seconds of shaking the plate using Perkin Elmer spectrophotometer (1420 Multilabel Counter Vicotr 3). […] Each well, where no growth was observed, was also plated on TSA-sheep blood agar plates, incubated at 37° C. overnight and visually inspected.
# (§2) A microbroth dilution method was used with twofold serial dilutions in CAMHB (according to EMEA guidelines) was used for screening of peptide activity, with concentrations ranging from 0.3 μg/mIto 200 μg/ml.
# human erythrocytes = type: cell-based
# Source text: The detergent Tween was used as a positive control, causing 100% lysis of RBCs.
# [6] = system: human embryonic kidney cells (HEK293T cell line); settings: 100 μg/ml; 24 hours incubation
# Source text: Alamar blue assay allowed monitoring of the total percentage of cell growth recovery in time in the presence of peptides.
# human EGFR2 = target: T2, human EGFR2 (Homo sapiens, UniProt P04626); assay: EGF-induced ERK1/2 phosphorylation in HeLa cells (ELISA); type: cell-based; settings: EGF 25 ng/ml
# T2 construct: these cells endogenously express EGFR1 and EGFR2; endogenous in cells; host or cells: HeLa
# Experimental: The EGFR2 peptides are designed to target the human EGFR2 receptor. Thus, for these assays, HeLa cells were initially used, as these cells endogenously express EGFR1 and EGFR2.
# For EGFR2, a similar screen was performed as for VEGFR2. Instead of using the time-consuming Western Blot method, however, an ELISA protocol was used that can detect both phospho- and total ERK1/2.
# PSA = target: T3, PSA (Homo sapiens, UniProt P07288); assay: PepBlot detection of PSA in human seminal plasma; type: binding; settings: 10% seminal plasma; for detection of PSA compared with monoclonal antibody: 250 nM peptide
# T3 construct: A sample of 10% seminal plasma was fractionated under non-reducing condition using denaturing gel electrophoresis; from tissue; host or cells: human seminal plasma
# T3 sequence (P07288 25-261): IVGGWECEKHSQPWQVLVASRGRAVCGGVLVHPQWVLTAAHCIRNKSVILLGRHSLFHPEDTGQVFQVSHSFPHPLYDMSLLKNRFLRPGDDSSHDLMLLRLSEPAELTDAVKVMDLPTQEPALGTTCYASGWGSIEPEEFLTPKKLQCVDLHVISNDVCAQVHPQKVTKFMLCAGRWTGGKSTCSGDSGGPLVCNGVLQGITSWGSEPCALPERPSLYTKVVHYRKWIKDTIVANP
# Experimental: Semen from a volunteer was collected and allowed to liquefy at room temperature. After 2 h the seminal fluid was centrifuged at 10,000×g for 15 min to separate the plasma from sperm cells. A sample of 10% seminal plasma was fractionated under non-reducing condition using denaturing gel electrophoresis then transferred to PVDF membrane and blocked using protocol described for serum electrophoresis. Lanes of membrane were agitated separately with 250 nM of peptide b^˜[…] (SEQ ID NO: 88) or peptide b^˜[…] (SEQ ID NO: 85) or 250 pM tandem repeat peptide b^˜[…] (SEQ ID NO: 89) formulated in 10 mM MES buffer pH 5.1, 100 mM trehalose, 0.05% Tween 20 and 2.5% DMSO at 25° C. for 1 h. The membranes were rinsed in 10 mM MES buffer pH 5.1, 0.05% tween 20 and stained with HRP-conjugated SRP and visualized with ECL system. In parallel WB detection of PSA in seminal plasma was carried out by incubating the membrane with (1:5000) rabbit monoclonal anti-PSA antibody (EP1588Yi Abcam) specific to the c-terminal peptide of PSA. This was followed by staining with goat polyclonal anti-rabbit antibody conjugated to HRP and visualised using ECL system.
# Experimental for B. cereus: as §1, §2
# Experimental for Corynebacterium: as §1, §2
compound,measurement,setting,value
"CC1(C)S[C@@H]2[C@H](NC(=O)[C@H](N)c3ccccc3)C(=O)N2[C@H]1C(=O)O [Ampicilin, reference compound]",maximal increase of the MIC,"MRSA strain 326; 31 days, concentration in medium adjusted to MIC of previous day",up to 7 fold
same,MIC on the last day of the experiment,MRSA strain 326; day 31,100 µg/mL
"CCOC(=O)C1=C[C@@H](OC(CC)CC)[C@H](NC(C)=O)[C@@H](N)C1 [Tamiflu, reference compound]",virus replication,"PR8 virus; positive control, 1 μM or 10 nM",did not completely inhibit viral replication in one setup
"CO[C@H]1/C=C/O[C@@]2(C)Oc3c(C)c(O)c4c(O)c(c(/C=N/N5CCN(C)CC5)c(O)c4c3C2=O)NC(=O)/C(C)=C\C=C\[C@H](C)[C@H](O)[C@@H](C)[C@@H](O)[C@@H](C)[C@H](OC(C)=O)[C@@H]1C [rifampin, reference compound]",fold elevation of the MIC,S. aureus [1],≤ 512 fold
"CN[C@H](CC(C)C)C(=O)N[C@H]1C(=O)N[C@@H](CC(N)=O)C(=O)N[C@H]2C(=O)N[C@H]3C(=O)N[C@H](C(=O)N[C@H](C(=O)O)c4cc(O)cc(O)c4-c4cc3ccc4O)[C@H](O)c3ccc(c(Cl)c3)Oc3cc2cc(c3O[C@@H]2O[C@H](CO)[C@@H](O)[C@H](O)[C@H]2O[C@H]2C[C@](C)(N)[C@H](O)[C@H](C)O2)Oc2ccc(cc2Cl)[C@H]1O [vancomycin, reference compound]",fold elevation of the MIC,S. aureus [1],increased two-fold
same,reduction of expansion of initial inoculum,S. aureus MRSA 326,8.7 Log10 CFU/ml
(His)6~RLAVVLQR [Tango 1 peptide],binding affinity with β-Gal observed in SPR,β-Gal [2],weak binding affinity
same,co-aggregation kinetics with free β-Gal in solution,β-Gal [3],faster co-aggregation kinetics
(His)6~RVIIWSLGNRGSGSAPAARVIIWSLGNR [Tandem of Tango 2],co-aggregation kinetics with free β-Gal in solution,β-Gal [3],fast co-aggregation kinetics
"DMISYAGMDPPDMISYAGMD [B12, VEGFR2 peptide B12]",ERK1/2 phosphorylation after EGF stimulation,EGFR family,do not inhibit ERK1/2 phosphorylation
O Z RGVSILNLRGSRGVSILNLR [interferor 4],virus replication,PR8 virus,still reproducibly inhibit virus replication
O Z RLIQLIVSRGSRLIQLIVSR [interferor 1],virus replication,PR8 virus,still reproducibly inhibit virus replication
O Z RTMAWTVVRGSRTMAWIVVR (RTMAWTVVRGSRTMAWTVVR) [interferor 3],virus replication,PR8 virus,less strong
O Z RTTIMAAFRGSRTTIMAAFR [interferor 2],virus replication,PR8 virus,less strong
RFFIALSRRGSRVQAYLYRR [Hit50],LDH release,[4],5%
same,MIC,S. aureus [5],25 µg/mL
same,MIC in presence of 50% FBS,S. aureus [5],100 µg/mL
same,MIC values against MRSA 326,S. aureus [5],50 µg/mL
same,hemolytic activity,human erythrocytes,no significant hemolytic activity at clinically relevant concentrations
same,MIC values against Corynebacterium,Corynebacterium,12.5 µg/mL
same,MIC values against B.cereus ATCC,B. cereus,>100 µg/mL
same,recovery of HEK cells,[6],90%
RIISAVVGRPPRIISAVVGR [A12],EGF signaling (phospho-ERK1/2),human EGFR2,significantly and repeatedly reduced EGF signaling
RTGYLYISRPPRTGYLYISR [A11],EGF signaling (phospho-ERK1/2),human EGFR2,significantly and repeatedly reduced EGF signaling
RWGLLLALRPPRWGLLLALR [A5],EGF signaling (phospho-ERK1/2),human EGFR2,significantly and repeatedly reduced EGF signaling
b~RQWVLTAAR [PSA interferor peptide],detection of PSA compared with monoclonal antibody,PSA,can detect PSA to comparable levels as the antibody
b~RQWVLTAARGSGSAPAARQWVLTAAR ({Biotin-Ttds}-APAARQWVLTAARGSGSAPAARQWVLTAAR) [tandem repeat PSA peptide],detection of PSA (band signal),PSA; 250 pM tandem repeat peptide,strong band signal
b~RWQVLVASD,detection of PSA compared with monoclonal antibody,PSA,can detect PSA to comparable levels as the antibody
